Data reported in paper PMC10641831 (Journal of Medicinal Chemistry, 2023).
Numbered stars: 1 amine (or outer) side, 2 acyl side, 3 side chain; on linkers, the order of the positions; unused ones are H or OH. Bridge positions count the residues as written; N and C are the ends. Square brackets hold non-standard residues; d marks the D form. Peptide text beside a SMILES is read from it. Phe(4-(Z)-phenylazo) = N[C@@H](Cc1ccc(/N=N\c2ccccc2)cc1)C(=O)O; AMPB(E) = O=C(c1ccc(/N=N/c2ccc(CN[*:1])cc2)cc1)[*:2]; X1 = O=C([C@H](Cc1ccc(/N=N/c2ccccc2)cc1)N[*:1])[*:2]; X2 = O=C(c1ccc(/N=N\c2ccc(CN[*:1])cc2)cc1)[*:2]

Columns and labels:
hOTR = biological target: T1, hOTR (Homo sapiens, UniProt P30559); assay: IP-One accumulation assay, agonist function, HEK293 cells expressing hOTR; format: cell-based; settings: for Emax: HEK293, relative to the effect of OT, read-out: OTR Emax ± SEM; for EC50: IP-One, stable HEK293 hOTR, E = thermal equilibrium, Z = PSS after 340 nm, read-out: OTR EC50 ± SEM; for OTR E/Z ratio EC50: ratio of EC50 of E- and Z-isomer; for decrease in potency compared to OT at OTR: EC50 vs OT
T1 construct: expressed in transfected cells
T1 sequence (P30559 1-389): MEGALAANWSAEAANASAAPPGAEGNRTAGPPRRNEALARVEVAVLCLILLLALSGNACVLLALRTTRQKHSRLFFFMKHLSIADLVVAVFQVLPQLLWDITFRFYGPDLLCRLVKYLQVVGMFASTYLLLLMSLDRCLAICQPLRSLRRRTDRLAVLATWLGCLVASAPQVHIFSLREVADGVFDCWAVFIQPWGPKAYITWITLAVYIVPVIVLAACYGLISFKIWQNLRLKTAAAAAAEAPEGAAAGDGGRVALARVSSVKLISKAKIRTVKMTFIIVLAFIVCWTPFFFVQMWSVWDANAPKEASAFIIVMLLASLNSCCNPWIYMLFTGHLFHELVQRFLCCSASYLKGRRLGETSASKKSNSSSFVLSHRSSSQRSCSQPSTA

[1] = Thermal half-life of the Z-isomer (UV/vis, 96-well plate); format: physicochemical; settings: 25 °C; for t1/2 (thermal half-life, Figure S50): 50 µM in HEPES buffer + 0.25% DMSO, pre-irradiated with 340 nm; for t1/2 (thermal half-life Z to E): preirradiation with 340 nm, HEPES buffer pH 7.4
From the text: All photoprobes were investigated regarding their photophysical properties in aqueous buffer (pH 7.5), mimicking the conditions of the biological functional assays. […] Upon irradiation with 340 nm light for 10 s and monitoring via UV/vis spectroscopy, all compounds could be switched to the Z-isomer, reaching the photostationary state (PSS). Compounds 8–17 containing azobenzene could be switched back to the E-isomer by irradiation at 420 nm for 60 s. Compounds 18 and 19 containing arylazopyrazole could be reverted to the E isomer by using 528 nm light. […] The PSS, when switched to the Z-isomer, was consistently good, with a PSS of 81–95%. […] The thermal half-lives of 10 and 12 were also measured at 37 °C, representing the temperature during the biological assays. As expected, the thermal half-lives decreased, however, the ratio of E and Z isomers remained stable during the incubation period of the biological assays (1 h).
Starting materials and commercial reagents were purchased from Acros, Alfa Aesar, Fisher, Fluka, Fluorochem, Merck (Sigma-Aldrich), TCI and VWR and were used without further purification. Solvents were used in p.a. quality or dried according to common procedures if necessary. All reactions with oxygen- or moisture-sensitive reagents were carried out in glassware that was dried before use by heating under vacuum. Dry nitrogen or argon was used for an inert gas atmosphere. All NMR spectra were measured at room temperature (20 °C) using a Bruker Avance 400 (400 MHz for ^1H and 101 MHz for ^13C) or a Bruker Avance 600 (600 MHz for ^1H and 151 MHz for ^13C) NMR spectrometer. All chemical shifts are reported in δ-scale as parts per million [ppm] (multiplicity, coupling constant J, number of protons) relative to the solvent residual peaks. Coupling constants J are given in hertz [Hz]. Abbreviations used for signal multiplicity: ^1H NMR: s = singlet, d = doublet, dd = doublet of doublets, ddd = doublet of doublets of doublets, dt = doublet of triplets, t = triplet, td = triplet of doublets, q = quartet, and m = multiplet. All mass spectra were recorded on an Agilent Q-TOF 6540 UHD, Finnigan MAT SSQ 710 A, Jeol AccuTOF GCX or ThermoQuest Finnigan TSQ 7000 spectrometer. Absorption spectra were recorded on an UV/vis Agilent Cary 50 spectrometer. Thermal half-lives were measured on a 96-well plate in a Thermo Scientific Multiskan Spectrum. Analytical TLC was performed on silica gel-coated alumina plates (MN precoated TLC-sheets ALUGRAM Xtra SIL G/UV254). Visualization was done using UV light (254 or 366 nm) or staining with ninhydrin solution. Column chromatography was performed on a Biotage Isolera One automated flash purification system with a UV/vis detector. Analytical RP-HPLC was carried out on an Agilent 1220 Infinity LC System (column: P/No 00F-4251-B0, Phenomenex Luna 3 μm C18(2) 100 Å, LC column 150 mm × 2.0 mm). Purification by preparative HPLC was conducted on a preparative HPLC Agilent 1260 Infinity LC System [column: P/No 00G-4253-P0-AX, Phenomenex Luna 10 μm C18(2) 100 Å, LC column 250 mm × 21.2 mm]. The eluent systems were used as specified. After the purification process, solvents were removed by lyophilization. Switching experiments were done with a 340 nm LED (SSC VIOSYS CUD4AF1B, 500 mA, 55 mW), 420 nm LED (ILH-XC01-S410-SC211-WIR200, 800 mA, 440 mW), and 528 nm LED (OSRAM Oslon SSL 80 green, 500 mA, 34 mW). Purity of all photoprobes was >95% as determined by analytical RP-HPLC at 220 nm in DMSO.
1.3.4. Thermal Half-lives
Thermal half-lives were measured in a 96-well plate in a Thermo Scientific Multiskan® Spectrum at 25 °C (and at 37 °C for compounds 10 and 12). The solutions (50 µM in HEPES buffer + 0.25% DMSO) were pre-irradiated with 340 nm. The absorption at 335 nm was measured every 3 h. The data was analyzed using Origin 2021.
0,7 1/2 ExpDec1 Fit of Sheet1 B
Modell ExpDec1 0,35 Modell ExpDec1
0,6 Gleichung y = A 1 *e xp (-x/t1 ) + y0 Gleichung y = A 1 *e xp (-x/t1 ) + y0 […]

[2] = Photostationary state by analytical C18-RP-HPLC; format: physicochemical; settings: for PSS (E → Z): irradiation with 340 nm, HEPES buffer; for PSS (Z → E): irradiation with 420 nm (8–17) or 528 nm (18, 19)
Experimental: All photoprobes were investigated regarding their photophysical properties in aqueous buffer (pH 7.5), mimicking the conditions of the biological functional assays.
1.3.2. Photostationary States
Photostationary states (PSS) were measured on analytical C18-RP-HPLC (flow: 0.3 mL/min, solvent A: H2O (0.05% TFA), solvent B: MeCN). To determine the PSS of the photoswitches, the samples (in 0.1 mM in HEPES buffer + 1% DMSO, pH 7.5) were irradiated first with 340 nm to get the Z-isomer. Afterwards, the sample was irradiated with 420 nm (8-17) or 528 nm (18 and 19), respectively, to get back to the E-isomer. The samples were measured at the isosbestic points.

Compound | Emax (hOTR) [%] | EC50 (hOTR) [nM] | OTR E/Z ratio EC50 (hOTR) | decrease in potency compared to OT at OTR (hOTR) [fold] | OTR Emax ± SEM (hOTR; relative to the effect of OT) [%] | t1/2 (thermal half-life, Figure S50) [1] [days] | t1/2 (thermal half-life Z to E) [1] [days] | PSS (E → Z) [2] [%] | PSS (Z → E) [2] [%]
CC[C@H](C)[C@@H]1NC(=O)[C@H](Cc2ccc(O)cc2)NC(=O)[C@@H](N)CSSC[C@@H](C(=O)NCc2ccc(/N=N/c3ccc(C(=O)NCC(N)=O)cc3)cc2)NC(=O)[C@H](CC(N)=O)NC(=O)[C@H](CCC(N)=O)NC1=O [E-10] (H-CYIQNC[AMPB(E)]G-NH2; disulfide 1-6) | 80 ± 1 | 94.6 ± 19 | 3.1 | – | – | – | – | – | –
CC[C@H](C)[C@@H]1NC(=O)[C@H](Cc2ccc(O)cc2)NC(=O)[C@@H](N)CSSC[C@@H](C(=O)NCc2ccc(/N=N\c3ccc(C(=O)NCC(N)=O)cc3)cc2)NC(=O)[C@H](CC(N)=O)NC(=O)[C@H](CCC(N)=O)NC1=O [Z-10] (H-CYIQNC[X2]G-NH2; disulfide 1-6) | 92 | 30.7 ± 4 | 3.1 | 12 | – | – | – | – | –
CC[C@H](C)[C@@H]1NC(=O)[C@H](Cc2ccc(/N=N/c3ccccc3)cc2)NC(=O)[C@@H](N)CSSC[C@@H](C(=O)N2CCC[C@H]2C(=O)N[C@@H](CC(C)C)C(=O)NCC(N)=O)NC(=O)[C@H](CC(N)=O)NC(=O)[C@H](CCC(N)=O)NC1=O [E-8] (H-C[X1]IQNCPLG-NH2; disulfide 1-6) | – | 4500 ± 1010 | 1.3 | – | 45 ± 3 | – | – | – | –
CC[C@H](C)[C@@H]1NC(=O)[C@H](Cc2ccc(O)cc2)NC(=O)[C@@H](N)CSSC[C@@H](C(=O)NCc2ccc(/N=N/c3ccc(C(=O)N[C@@H](CC(C)C)C(=O)NCC(N)=O)cc3)cc2)NC(=O)[C@H](CC(N)=O)NC(=O)[C@H](CCC(N)=O)NC1=O [E-11] (H-CYIQNC[AMPB(E)]LG-NH2; disulfide 1-6) | 75 ± 1 | 263 ± 21 | 2.0 | – | – | – | – | – | –
[AzbC(m,o)^1,Dap^6]-VP [compound 16] | – | – | – | – | – | 3.1 | 3.1 | 89 | 83
CC[C@H](C)[C@@H]1NC(=O)[C@H](Cc2ccc(O)cc2)NC(=O)[C@@H](N)CSSC[C@@H](C(=O)N[C@@H](Cc2ccc(/N=N\c3ccccc3)cc2)C(=O)N[C@@H](CC(C)C)C(=O)NCC(N)=O)NC(=O)[C@H](CC(N)=O)NC(=O)[C@H](CCC(N)=O)NC1=O [Z-9] (H-CYIQNC[Phe(4-(Z)-phenylazo)]LG-NH2; disulfide 1-6) | 90 ± 1 | 136 ± 6 | 2.5 | 55 | – | – | – | – | –
CC[C@H](C)[C@@H]1NC(=O)[C@H](Cc2ccc(O)cc2)NC(=O)[C@@H](N)CSSC[C@@H](C(=O)N[C@@H](Cc2ccc(/N=N/c3ccccc3)cc2)C(=O)N[C@@H](CC(C)C)C(=O)NCC(N)=O)NC(=O)[C@H](CC(N)=O)NC(=O)[C@H](CCC(N)=O)NC1=O [E-9] (H-CYIQNC[X1]LG-NH2; disulfide 1-6) | 89 ± 1 | 346 ± 30 | 2.5 | – | – | – | – | – | –
[AzpC(m)^1,Dap^6]-VP [compound 19] | – | – | – | – | – | 54.5 | 54.5 | 93 | 87
[AzbC(m,m)^1,Dap^6]-VP [compound 17] | – | – | – | – | – | 28.6 | 28.6 | 93 | 88
CC[C@H](C)[C@@H]1NC(=O)[C@H](Cc2ccc(/N=N\c3ccccc3)cc2)NC(=O)[C@@H](N)CSSC[C@@H](C(=O)N2CCC[C@H]2C(=O)N[C@@H](CC(C)C)C(=O)NCC(N)=O)NC(=O)[C@H](CC(N)=O)NC(=O)[C@H](CCC(N)=O)NC1=O [Z-8] (H-C[Phe(4-(Z)-phenylazo)]IQNCPLG-NH2; disulfide 1-6) | 35 ± 1 | 3500 ± 1890 | 1.3 | – | – | – | – | – | –
CC[C@H](C)[C@@H]1NC(=O)[C@H](Cc2ccc(O)cc2)NC(=O)[C@@H](N)CSSC[C@@H](C(=O)NCc2ccc(/N=N\c3ccc(C(=O)N[C@@H](CC(C)C)C(=O)NCC(N)=O)cc3)cc2)NC(=O)[C@H](CC(N)=O)NC(=O)[C@H](CCC(N)=O)NC1=O [Z-11] (H-CYIQNC[X2]LG-NH2; disulfide 1-6) | 86 ± 1 | 134 ± 17 | 2.0 | 55 | – | – | – | – | –
[AzpC(o)^1,Dap^6]-VP [compound 18] | – | – | – | – | – | 6.6 | 6.6 | 94 | 82
